Source: publication PMC11944670, “Reshaping [^99mTc]Tc-DT11 to DT14D Tagged with Trivalent Radiometals for NTS1R-Positive Cancer Theranostics” (Pharmaceutics, 2025)
Residues, ends and D or L forms follow the SMILES beside them. *: point of attachment. DOTA = O=C(O)CN1CCN(CC(=O)O)CCN(CC(=O)*)CCN(CC(=O)O)CC1; X1 = Cc1ccc(CCCC(=O)NCCOCCOCCOCCOCC(=O)*)cc1; βAla = NCCC(=O)O

Experiment: in vivo
Parameters: species or system mice
Settings: male, SCID, mouse, iv, total radioactivity
Procedure: The distribution of [^67Ga]Ga/[^111In]In/[^177Lu]Lu-DT14D was investigated in male severe combined immunodeficiency (SCID) mice (49 mice in total, 6 weeks of age on arrival date, 22 ± 4 g, NCSR “Demokritos” Animal House, Athens, Greece) bearing NTS1R-positive AsPC-1 xenografts in their flanks. For xenograft induction, suspensions of freshly harvested AsPC-1 cells (5 × 10^6 cells in 150 µL sterile PBS) were subcutaneously injected into the mice’s flanks. The animals were kept under aseptic conditions and 4 weeks later developed well palpable masses at the inoculation sites (100 ± 50 mg) and biodistribution was conducted. On the day of the experiment, the animals received a bolus (100 μL, in vehicle: saline/EtOH 9/1 v/v) containing the radioligand via the tail vein. The following groups of four animals per time point, per treatment, were included per radioligand (the 4 h block groups comprised 3 animals instead) including the respective (radio)ligand amounts injected: i. 78–91 kBq [^67Ga]Ga-DT14D corresponding to 7–17 pmol DT14D at 1 and 4 h pi plus 4 h block (coinjection with 100 µg NT); ii. 74–92 kBq [^111In]In-DT14D corresponding to 20–25 pmol at 4 h (controls), 4 h pi (Entresto®; animals receiving a slurry of 12 mg/200 µL Entresto® oral gavage 30 min in advance) and 4 h block (coinjection with 100 µg NT); 24 h pi (including both controls and Entresto® mice groups); and iii. 730 kBq [^177Lu]Lu-DT14D corresponding to 40 pmol DT14D at 4, 24, 48, and 72 h pi plus 4 h block (co-injection with 100 µg NT). The animals were euthanized at predetermined time intervals, dissected and blood samples, organs of interest, and tumors were collected, weighed, and counted in the gamma counter. Biodistribution data were calculated as percent of the injected activity per gram tissue (%IA/g) with the aid of suitable standards of the administered activity. Results as the mean %IA/g values ± sd were obtained and statistical analysis was performed with PRISM^TM GraphPad—10.2 Software (San Diego, CA/USA), applying 2-way ANOVA with Tukey’s post hoc analysis, or, in the case of two variables, Šídák’s multiple comparisons test was adopted; differences with p < 0.05 were considered as statistically significant.

[1] = 730 kBq, Biodistribution, AsPC-1 Tumor
[2] = 730 kBq, Biodistribution, Blood
[3] = 730 kBq, Biodistribution, Femur
[4] = 730 kBq, Biodistribution, Heart
[5] = 730 kBq, Biodistribution, Intestines
[6] = 730 kBq, Biodistribution, Kidneys
[7] = 730 kBq, Biodistribution, Liver
[8] = 730 kBq, Biodistribution, Lungs
[9] = 730 kBq, Biodistribution, Muscle
[10] = 730 kBq, Biodistribution, Pancreas
[11] = 730 kBq, Biodistribution, Spleen
[12] = 730 kBq, Biodistribution, Stomach
[13] = 730 kBq, Tumor/Intestines ratio

## CC[C@H](C)[C@H](NC(=O)[C@H](Cc1ccc(O)cc1)NC(=O)[C@@H]1CCCN1C(=O)[C@H](CCCNC(=N)N)NC(=O)[C@H](CCCNC(=N)N)NC(=O)[C@H](CCCCNC(=O)COCCOCCOCCOCCNC(=O)CCCc1ccc(C)cc1)NC(=O)CCNC(=O)CCNC(=O)CCNC(=O)CN1CCN(CC(=O)O)CCN(CC(=O)O)CCN(CC(=O)O)CC1)C(=O)N[C@@H](CC(C)C)C(=O)O [[^67Ga]Ga-DT14D, metal not drawn] ({DOTA-βAla-βAla-βAla}-K(X1)RRPYIL-OH)
Biodistribution, AsPC-1 Tumor
  tissue uptake at 1 h: 11.4 ± 1.25 %ID/g
Biodistribution, Blood
  tissue uptake at 1 h: 9.52 ± 0.76 %ID/g
Biodistribution, Femur
  tissue uptake at 1 h: 2.24 ± 0.23 %ID/g
Biodistribution, Heart
  tissue uptake at 1 h: 2.86 ± 0.16 %ID/g
Biodistribution, Intestines
  tissue uptake at 1 h: 2.81 ± 0.53 %ID/g
Biodistribution, Kidneys
  tissue uptake at 1 h: 7.1 ± 1.12 %ID/g
Biodistribution, Liver
  tissue uptake at 1 h: 3.74 ± 0.37 %ID/g
Biodistribution, Lungs
  tissue uptake at 1 h: 4.31 ± 0.28 %ID/g
Biodistribution, Muscle
  tissue uptake at 1 h: 1.14 ± 0.15 %ID/g
Biodistribution, Pancreas
  tissue uptake at 1 h: 1.41 ± 0.12 %ID/g
Biodistribution, Spleen
  tissue uptake at 1 h: 2.86 ± 0.33 %ID/g
Biodistribution, Stomach
  tissue uptake at 1 h: 0.97 ± 0.27 %ID/g
  tissue uptake at 4 h: 0.45 ± 0.08 %ID/g
Tumor/Blood ratio
  tissue to tissue ratio at 1 h: 1.2 ± 0.06
Tumor/Heart ratio
  tissue to tissue ratio at 1 h: 3.99 ± 0.24
Tumor/Intestines ratio
  tissue to tissue ratio at 1 h: 4.12 ± 0.52
Tumor/Kidneys ratio
  tissue to tissue ratio at 1 h: 1.62 ± 0.13
  tissue to tissue ratio at 4 h: 1.15 ± 0.12
Tumor/Liver ratio
  tissue to tissue ratio at 1 h: 3.05 ± 0.19
Tumor/Lungs ratio
  tissue to tissue ratio at 1 h: 2.64 ± 0.15
  tissue to tissue ratio at 4 h: 3.28 ± 0.21
Tumor/Muscle ratio
  tissue to tissue ratio at 1 h: 10.1 ± 1.09
Tumor/Pancreas ratio
  tissue to tissue ratio at 1 h: 8.09 ± 0.24
Tumor/Spleen ratio
  tissue to tissue ratio at 1 h: 4 ± 0.08
Tumor/Stomach ratio
  tissue to tissue ratio at 1 h: 12.2 ± 2.71
  tissue to tissue ratio at 4 h: 9.96 ± 1.68

## CC[C@H](C)[C@H](NC(=O)[C@H](Cc1ccc(O)cc1)NC(=O)[C@@H]1CCCN1C(=O)[C@H](CCCNC(=N)N)NC(=O)[C@H](CCCNC(=N)N)NC(=O)[C@H](CCCCNC(=O)COCCOCCOCCOCCNC(=O)CCCc1ccc(C)cc1)NC(=O)CCNC(=O)CCNC(=O)CCNC(=O)CN1CCN(CC(=O)O)CCN(CC(=O)O)CCN(CC(=O)O)CC1)C(=O)N[C@@H](CC(C)C)C(=O)O [[^111In]In-DT14D, metal not drawn] ({DOTA-βAla-βAla-βAla}-K(X1)RRPYIL-OH)
Biodistribution, AsPC-1 Tumor
  tissue uptake at 24 h: 2.82 ± 0.68 %ID/g
Biodistribution, Kidneys
  tissue uptake at 24 h: 1.7 ± 0.13 %ID/g
Tumor/Intestines ratio
  tissue to tissue ratio at 24 h: 4.07 ± 0.42
Tumor/Kidneys ratio
  tissue to tissue ratio at 24 h: 1.66 ± 0.4
Tumor/Spleen ratio
  tissue to tissue ratio at 24 h: 1.77 ± 0.32

## CC[C@H](C)[C@H](NC(=O)[C@H](Cc1ccc(O)cc1)NC(=O)[C@@H]1CCCN1C(=O)[C@H](CCCNC(=N)N)NC(=O)[C@H](CCCNC(=N)N)NC(=O)[C@H](CCCCNC(=O)COCCOCCOCCOCCNC(=O)CCCc1ccc(C)cc1)NC(=O)CCNC(=O)CCNC(=O)CCNC(=O)CN1CCN(CC(=O)O)CCN(CC(=O)O)CCN(CC(=O)O)CC1)C(=O)N[C@@H](CC(C)C)C(=O)O [[^177Lu]Lu-DT14D, metal not drawn] ({DOTA-βAla-βAla-βAla}-K(X1)RRPYIL-OH)
40 pmol, Tumor/Blood ratio
  tissue to tissue ratio at 72 h: 29.8 ± 7.43
40 pmol, Tumor/Liver ratio
  tissue to tissue ratio at 48 h: 1.63 ± 0.14
  tissue to tissue ratio at 72 h: 1.44 ± 0.19
40 pmol, Tumor/Lungs ratio
  tissue to tissue ratio at 48 h: 11.4 ± 1
  tissue to tissue ratio at 72 h: 9.66 ± 1.43
40 pmol, Tumor/Pancreas ratio
  tissue to tissue ratio at 48 h: 20.4 ± 1.96
  tissue to tissue ratio at 72 h: 16.2 ± 5.04
[1]
  tissue uptake at 48 h: 1.56 ± 0.17 %ID/g
  tissue uptake at 72 h: 1.24 ± 0.2 %ID/g
[2]
  tissue uptake at 48 h: 0.05 ± 0.01 %ID/g
  tissue uptake at 72 h: 0.04 %ID/g
[3]
  tissue uptake at 48 h: 0.38 ± 0.03 %ID/g
  tissue uptake at 72 h: 0.35 ± 0.03 %ID/g
[4]
  tissue uptake at 48 h: 0.07 ± 0.01 %ID/g
  tissue uptake at 72 h: 0.06 ± 0.01 %ID/g
[5]
  tissue uptake at 48 h: 0.36 ± 0.01 %ID/g
  tissue uptake at 72 h: 0.27 ± 0.02 %ID/g
[6]
  tissue uptake at 48 h: 0.88 ± 0.06 %ID/g
  tissue uptake at 72 h: 0.57 ± 0.15 %ID/g
[7]
  tissue uptake at 48 h: 0.96 ± 0.05 %ID/g
  tissue uptake at 72 h: 0.86 ± 0.1 %ID/g
[8]
  tissue uptake at 48 h: 0.14 %ID/g
  tissue uptake at 72 h: 0.13 ± 0.04 %ID/g
[9]
  tissue uptake at 48 h: 0.04 ± 0.01 %ID/g
  tissue uptake at 72 h: 0.04 ± 0.02 %ID/g
[10]
  tissue uptake at 48 h: 0.07 ± 0.01 %ID/g
  tissue uptake at 72 h: 0.08 ± 0.02 %ID/g
[11]
  tissue uptake at 48 h: 1.6 ± 0.58 %ID/g
  tissue uptake at 72 h: 1.49 ± 0.51 %ID/g
[12]
  tissue uptake at 48 h: 0.07 ± 0.01 %ID/g
  tissue uptake at 72 h: 0.04 ± 0.01 %ID/g
730 kBq, Tumor/Blood ratio
  tissue to tissue ratio at 48 h: 30.9 ± 3.67
730 kBq, Tumor/Heart ratio
  tissue to tissue ratio at 48 h: 23 ± 2.32
  tissue to tissue ratio at 72 h: 20.1 ± 3.03
[13]
  tissue to tissue ratio at 48 h: 4.28 ± 0.33
  tissue to tissue ratio at 72 h: 4.65 ± 0.91
730 kBq, Tumor/Kidneys ratio
  tissue to tissue ratio at 48 h: 1.78 ± 0.3
  tissue to tissue ratio at 72 h: 2.26 ± 0.49
730 kBq, Tumor/Muscle ratio
  tissue to tissue ratio at 48 h: 39.2 ± 5.49
  tissue to tissue ratio at 72 h: 36.1 ± 14.6
730 kBq, Tumor/Spleen ratio
  tissue to tissue ratio at 48 h: 1.1 ± 0.51
  tissue to tissue ratio at 72 h: 0.89 ± 0.25
730 kBq, Tumor/Stomach ratio
  tissue to tissue ratio at 48 h: 23.8 ± 2.17
  tissue to tissue ratio at 72 h: 26.6 ± 5.58
